Measurements reported in ChEMBL document CHEMBL1145587, “Facile formation of hydrophilic derivatives of 5H-8,9-dimethoxy-5-[2-(N,N-dimethylamino)ethyl]-2,3-methylenedioxydibenzo[c,h] [1,6]naphthyridin-6-one (ARC-111) and its 12-aza analog via quaternary ammonium intermediates” (Bioorg Med Chem Lett, 2008).

Tests used:
[1] = Cytotoxicity against human […] cells; type: functional, cell-based
[2] = Cytotoxicity against […] cells; type: functional, cell-based; settings: Mus musculus, P388CPT45
[3] = biological target: T1, DNA topoisomerase 1 (Homo sapiens) (UniProt P11387); experiment: Effect on human topoisomerase 1-mediated plasmid DNA cleavage relative to topotecan
T1 sequence (whole entry): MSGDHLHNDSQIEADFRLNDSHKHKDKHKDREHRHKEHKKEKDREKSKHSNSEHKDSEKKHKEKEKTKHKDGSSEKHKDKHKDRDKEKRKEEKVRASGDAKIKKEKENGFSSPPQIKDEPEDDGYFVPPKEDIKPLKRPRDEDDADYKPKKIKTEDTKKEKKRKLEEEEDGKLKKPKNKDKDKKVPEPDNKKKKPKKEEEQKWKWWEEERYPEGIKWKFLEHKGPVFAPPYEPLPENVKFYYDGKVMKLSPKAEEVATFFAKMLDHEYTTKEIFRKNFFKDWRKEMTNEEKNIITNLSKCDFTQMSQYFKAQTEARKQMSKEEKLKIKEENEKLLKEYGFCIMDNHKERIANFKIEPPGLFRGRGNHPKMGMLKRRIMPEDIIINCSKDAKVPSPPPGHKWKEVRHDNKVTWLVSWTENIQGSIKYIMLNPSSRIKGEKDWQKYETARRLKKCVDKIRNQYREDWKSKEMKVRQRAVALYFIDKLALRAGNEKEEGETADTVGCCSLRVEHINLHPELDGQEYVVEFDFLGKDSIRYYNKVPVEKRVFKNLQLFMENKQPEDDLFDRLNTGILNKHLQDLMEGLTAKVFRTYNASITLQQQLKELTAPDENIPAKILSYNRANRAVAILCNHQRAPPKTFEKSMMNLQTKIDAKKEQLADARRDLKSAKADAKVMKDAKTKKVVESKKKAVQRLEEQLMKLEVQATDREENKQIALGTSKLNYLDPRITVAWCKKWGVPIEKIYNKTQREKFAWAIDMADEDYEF

P388 = experiment: Cytotoxicity against […] cells; type: functional, cell-based; settings: Mus musculus
[4] = Cytotoxicity against human camptothecin-resistant CPT-K5 cells; type: functional, cell-based

SMILES | IC50 [1] [µM] | IC50 [2] [µM] | Activity [3] | IC50 (P388) [µM] | IC50 [4] [µM]
COc1cc2c(=O)n(CCn3ccnc3)c3c4cc5c(cc4ncc3c2cc1OC)OCO5 | 0.21 | > 10 | 2.3 | 0.2 | > 10
COc1cc2c(=O)n(CCn3ccnc3)c3c4cc5c(cc4nnc3c2cc1OC)OCO5 | 0.4 | > 10 | 0.1 | 0.19 | > 10
COc1cc2c(=O)n(CCNC(CO)(CO)CO)c3c4cc5c(cc4ncc3c2cc1OC)OCO5 | 0.33 | 3.5 | 2 | 0.33 | 7
COc1cc2c(=O)n(CCN(C)C)c3c4cc5c(cc4nnc3c2cc1OC)OCO5 | 0.002 | 0.23 | 0.3 | 0.002 | 0.74
COc1cc2c(=O)n(CCN(C)C)c3c4cc5c(cc4ncc3c2cc1OC)OCO5 | 0.002 | 0.23 | 0.3 | 0.001 | 0.9
COc1cc2c(=O)n(CCN(C)CCN(C)C)c3c4cc5c(cc4nnc3c2cc1OC)OCO5 | 0.033 | 0.3 | 0.4 | 0.019 | 2.2
COc1cc2c(=O)n(CCN(C)CCN(C)C)c3c4cc5c(cc4ncc3c2cc1OC)OCO5 | 0.045 | 0.07 | 0.7 | 0.035 | 2.2
CC[C@@]1(O)C(=O)OCc2c1cc1n(c2=O)Cc2cc3ccccc3nc2-1 [CAMPTOTHECIN] | 0.004 | > 10 | 0.2 | 0.004 | > 10
COc1cc2c(=O)n(CCO)c3c4cc5c(cc4ncc3c2cc1OC)OCO5 | 0.03 | 0.9 | 4.7 | 0.03 | > 10
COc1cc2c(=O)n(CCNC(CO)(CO)CO)c3c4cc5c(cc4nnc3c2cc1OC)OCO5 | 0.065 | 3 | 0.2 | 0.04 | 5.7
COc1cc2c(=O)n(CCO)c3c4cc5c(cc4nnc3c2cc1OC)OCO5 | 0.013 | 0.7 | 0.3 | 0.012 | 1.3
